The text below walks through data of patent US6989399B2, “Antiamyloid phenylsulfonamides: N-alkanol derivatives” (Bristol-Myers Squibb Company, priority 2002, dated 2006).

Molecules are shown by their SMILES.

The test deals with T1, γ-secretase (Homo sapiens, UniProt P49768).
T1 construct: The endogenous γ-secretase present in the isolated membranes; endogenous in cells; host or cells: isolated membrane fraction of human-derived cell lines such as HeLa and H4, stably transfected with β-APP substrate
Description: Isolated membrane γ-secretase assay, time-resolved fluorescence detection of Aβ. The test is classed as biochemical. The conditions noted are these: isolated membranes, about 90 minutes at 37 degrees C; read-out: Activity (IC50), Inhibition of β-Amyloid Peptide. From the text: The detection of γ-secretase activity requires assays capable of reliable, accurate and expedient detection of γ-secretase cleavage products, particularly Aβ. An isolated membrane fraction that contains functionally active γ-secretase and β-APP substrates can generate γ-secretase cleavage products including Aβ (Roberts et al., WO 01/75435; Fechteler et al., Patent Application No. DE 99-19941039 19990828; Shearman et al., Biochemistry, 39, p. 8698–8704 (2000); Zhang et al., Biochemistry, 40, p. 5049-5055 (2001)). An isolated membrane fraction can be prepared from human derived cell lines such as HeLa and H4 which have been transfected with wild type or mutant forms of β-APP or a human alkaline phosphatase β-APP fusion construct, and stably express high levels of γ-secretase substrates. The endogenous γ-secretase present in the isolated membranes prepared at 0–4 degrees C. cleaves the β-APP substrates when the membranes are shifted from 0–4 to 37 degrees C. […] 325–327 (1992), or by a preferred method using time-resolved fluorescence of the homogeneous sample containing membranes and Aβ (Roberts et al., WO 01/75435; Shearman et al., Biochemistry, 39, p. 8698–8704 (2000)). The Aβ present in a homogeneous sample containing membranes can be detected by time-resolved fluorescence with two antibodies that recognize different epitopes of Aβ. One of the antibodies recognizes an epitope that is present in Aβ but not present in the precursor fragments; preferably the antibody binds the carboxyl terminus of Aβ generated by the γ-secretase cleavage. The second antibody binds to any other epitope present on Aβ. For example, antibodies that bind the N-terminal region (e.g., 26D6-B2-B3® SIBIA Neurosciences, La Jolla, Calif.) or bind the C-terminal end (e.g., 9S3.2® antibody, Biosolutions, Newark, Del.) of the Aβ peptide are known. The antibodies are labeled with a pair of fluorescent adducts that transfer fluorescent energy when the adducts are brought in close proximity as a result of binding to the N- and C-terminal ends or regions of Aβ. A lack of fluorescence is indicative of the absence of cleavage products, resulting from inhibition of γ-secretase. The isolated membrane assay can be used to identify candidate agents that inhibit the activity of γ-secretase cleavage and Aβ production.
A typical membrane-based assay requires 45 μg membrane protein per well in a 96- or 384-well format. Membranes in a neutral buffer are combined with the test compound and shifted from 0–4 to 37 degrees C. Test agents may typically consist of synthetic compounds, secondary metabolites from bacterial or fungal fermentation extracts, or extracts from plant or marine samples. All synthetic agents are initially screened at doses ranging from 10–100 μM or in the case of extracts at sufficient dilution to minimize cytotoxicity. Incubation of the membranes with the test agent will continue for approximately 90 minutes at which time fluorescence labeled antibodies are added to each well for Aβ quantitation. The time-resolved fluorescence detection and quantitation of Aβ is described elsewhere (Roberts et al., WO 01/75435; Shearman et al., Biochemistry, 39, p. 8698–8704 (2000)). Results are obtained by analysis of the plate in a fluorescence plate reader and comparison to the mock treated membranes and samples in which known amounts of Aβ were added to construct a standard concentration curve. A positive acting compound is one that inhibits the Aβ relative to the control sample by at least 50% at the initial tested concentration. If a compound is found to be active then a dose response experiment is performed to determine the lowest dose of compound necessary to elicit the inhibition of the production of Aβ.
The Formula I compounds were tested in the assay described above and found to be active as inhibitors of γ-secretase. […]
With `CCCC(O)[C@@H](C)N(c1cc(Cl)ccc1Cl)S(=O)(=O)c1ccc(Cl)cc1` (single isomer, unassigned) [Example 6A], the 50% inhibitory concentration (IC50) is 50 to 200 nM.
With `CCCC(O)[C@@H](C)N(c1cc(Cl)ccc1F)S(=O)(=O)c1ccc(Cl)cc1` (single isomer, unassigned) [Example 27A], the IC50 is < 50 nM.
`C[C@H](C(O)C1CCCCC1)N(c1cc(Cl)ccc1Cl)S(=O)(=O)c1ccc(Cl)cc1` (mixture of isomers) [Example 13]: the half-inhibitory concentration (IC50) lay within 200 to 5000 nM.
On to `C#CCC(O)[C@@H](C)N(c1cc(Cl)ccc1F)S(=O)(=O)c1ccc(Cl)cc1` (single isomer, unassigned) [Example 21B], for which the IC50 was < 50 nM.
As to `C=CCCC(O)C[C@@H](C)N(c1cc(Cl)ccc1Cl)S(=O)(=O)c1ccc(Cl)cc1` (mixture of isomers) [Example 29], the IC50 was in the range of 50 to 200 nM.
Turning to `COc1ccc(C(O)[C@@H](C)N(c2cc(Cl)ccc2F)S(=O)(=O)c2ccc(Cl)cc2)cc1` (mixture of isomers) [Example 22], the IC50 lay within 200 to 5000 nM.
Turning to `C=CCCC(O)C(C)N(c1cc(Cl)ccc1F)S(=O)(=O)c1ccc(Cl)cc1` (single isomer, unassigned) [Example 20B], the IC50 was 200 to 5000 nM.
As to `CC(C)C(O)[C@@H](C)N(c1cc(Cl)ccc1Cl)S(=O)(=O)c1ccc(Cl)cc1` (mixture of isomers) [Example 10], the IC50 lay in the range of 200 to 5000 nM.
For `CCCC(O)[C@@H](C)N(c1cc(Cl)ccc1Cl)S(=O)(=O)c1ccc(Cl)cc1` (single isomer, unassigned) [Example 6B], the IC50 lay within 200 to 5000 nM.
The figure for `CC(C(O)CCc1ccccc1)N(c1cc(Cl)ccc1Cl)S(=O)(=O)c1ccc(Cl)cc1` (single isomer, unassigned) [Example 17B] is 200 to 5000 nM; for `C=CCC(O)[C@@H](C)N(c1cc(Cl)ccc1Cl)S(=O)(=O)c1ccc(Cl)cc1` (single isomer, unassigned) [Example 5A] it is 50 to 200 nM.
The figure for `C=CCCC(O)C(C)N(c1cc(Cl)ccc1Cl)S(=O)(=O)c1ccc(Cl)cc1` (single isomer, unassigned) [Example 18A] is 50 to 200 nM; for `CC(O)C(C)N(c1cc(Cl)ccc1F)S(=O)(=O)c1ccc(Cl)cc1` (single isomer, unassigned) [Example 19A] it is 50 to 200 nM; for `C=CCCC(O)C(C)N(c1cc(Cl)ccc1F)S(=O)(=O)c1ccc(Cl)cc1` (single isomer, unassigned) [Example 20A] it is 50 to 200 nM.
In the case of `CC(C)CC(O)[C@@H](C)N(c1cc(Cl)ccc1Cl)S(=O)(=O)c1ccc(Cl)cc1` (mixture of isomers) [Example 11], the IC50 lay within 200 to 5000 nM.
In the case of `C[C@H](C(O)c1ccccc1)N(c1cc(Cl)ccc1Cl)S(=O)(=O)c1ccc(Cl)cc1` (mixture of isomers) [Example 14], the IC50 lay within 200 to 5000 nM.
With `CC(C)CC(O)C[C@@H](C)N(c1cc(Cl)ccc1Cl)S(=O)(=O)c1ccc(Cl)cc1` (mixture of isomers) [Example 28], the IC50 fell in the range of 50 to 200 nM.
As for `CC(C(O)CCc1ccccc1)N(c1cc(Cl)ccc1Cl)S(=O)(=O)c1ccc(Cl)cc1` (single isomer, unassigned) [Example 17A], the IC50 was in the range of 200 to 5000 nM.
On to `Cc1cc(C)c(C(O)[C@@H](C)N(c2cc(Cl)ccc2Cl)S(=O)(=O)c2ccc(Cl)cc2)c(C)c1` (single isomer, unassigned) [Example 16A], for which the IC50 lay in the range of 200 to 5000 nM.
As to `C=CCCC(O)C(C)N(c1cc(Cl)ccc1Cl)S(=O)(=O)c1ccc(Cl)cc1` (single isomer, unassigned) [Example 18B], the IC50 lay in the range of 200 to 5000 nM.
For the compound `C[C@H](CC(O)c1ccccc1)N(c1cc(Cl)ccc1Cl)S(=O)(=O)c1ccc(Cl)cc1` (mixture of isomers) [Example 30], the IC50 lay in the range of 50 to 200 nM.
The same measure for `C=CCC(O)[C@@H](C)N(c1cc(Cl)ccc1Cl)S(=O)(=O)c1ccc(Cl)cc1` (single isomer, unassigned) [Example 5B]: 200 to 5000 nM.
With `CCCC(=O)OC(CCC)[C@@H](C)N(c1cc(Cl)ccc1F)S(=O)(=O)c1ccc(Cl)cc1` (single isomer, unassigned) [Example 8], the IC50 was 50 to 200 nM.
Consider `CC(O)C[C@@H](C)N(c1cc(Cl)ccc1Cl)S(=O)(=O)c1ccc(Cl)cc1` (mixture of isomers) [Example 7], for which the IC50 is 50 to 200 nM.
For `CC(O)C(C)N(c1cc(Cl)ccc1Cl)S(=O)(=O)c1ccc(Cl)cc1` (single isomer, unassigned) [Example 9A], the half-inhibitory concentration (IC50) was in the range of 50 to 200 nM.
As to `C[C@H](C(O)CC(=O)O)N(c1cc(Cl)ccc1F)S(=O)(=O)c1ccc(Cl)cc1` (mixture of isomers) [Example 24], the concentration for half-maximal inhibition (IC50) was in the range of 50 to 200 nM.
Regarding `C[C@H](C(O)C1CCCC1)N(c1cc(Cl)ccc1Cl)S(=O)(=O)c1ccc(Cl)cc1` (mixture of isomers) [Example 12], the IC50 fell in the range of 200 to 5000 nM.
The same measure for `C=CCC(O)[C@@H](C)N(c1cc(Cl)ccc1F)S(=O)(=O)c1ccc(Cl)cc1` (single isomer, unassigned) [Example 23A]: < 50 nM; for `C#CCC(O)[C@@H](C)N(c1cc(Cl)ccc1F)S(=O)(=O)c1ccc(Cl)cc1` (single isomer, unassigned) [Example 21A]: < 50 nM.

Broadly, the IC50 is the midpoint of a concentration-inhibition curve.
